{"source": "patent EP0071087A1", "about": "“Improved determination of creatine phosphokinase in body fluids” (SERAGEN DIAGNOSTICS, INC., priority 1981, dated 1983)", "biological_target": "T1, Purified Human Erythrocyte Adenylate Kinase (Homo sapiens, UniProt P00568)", "T1 construct": "from tissue; host or cells: human erythrocytes", "T1 sequence (P00568 1-194)": "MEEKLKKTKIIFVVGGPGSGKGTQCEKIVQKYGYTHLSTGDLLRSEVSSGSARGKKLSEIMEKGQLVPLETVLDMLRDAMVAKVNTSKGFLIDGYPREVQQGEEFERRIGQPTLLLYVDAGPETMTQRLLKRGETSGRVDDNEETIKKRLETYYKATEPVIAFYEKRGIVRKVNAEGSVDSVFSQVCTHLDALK", "assay": "Inhibition of purified human erythrocyte adenylate kinase in a CPK-UV (Oliver-Rosalki) assay", "assay_type": "biochemical", "conditions": "37°C", "experimental": "Table I illustrates the utilization of a high AMP/ ADP ratio in inhibiting purified human erythrocyte adenylate kinase. Residual AK activity is measured in reagent systems containing all necessary components of the Oliver-Rosalki CPK assay. The systems vary as a function of three components: AMP, ADP, and sodium fluoride. The data points cover a 1.43-5.72m Mole/liter ADP range and a 2.9-29.2m Mole/liter AMP range plus or minus 6m Mole/ liter NaF.\nThe reagents of Example 1 and 2 were utilized with the AMP and ADP concentration listed in the table, with or without 6 m mole/liter sodium fluoride."}
{"compound": "Nc1ncnc2c1ncn2[C@@H]1O[C@H](COP(=O)(O)O)[C@@H](O)[C@H]1O", "note": "[AMP, adenosine monophosphate]", "values": [{"measurement": "Measured Residual Adenylate Kinase (+NaF)", "setting": "ADP 1.43 mM, AMP 2.9 mM, AMP/ADP 2.0, 6 m mole/liter NaF", "value": 24, "unit": "U/l"}, {"measurement": "Measured Residual Adenylate Kinase (-NaF)", "setting": "ADP 1.43 mM, AMP 2.9 mM, AMP/ADP 2.0, no NaF", "value": 103, "unit": "U/l"}, {"measurement": "Measured Residual Adenylate Kinase (+NaF)", "setting": "ADP 1.43 mM, AMP 5.8 mM, AMP/ADP 4.1, 6 m mole/liter NaF", "value": 13, "unit": "U/l"}, {"measurement": "Measured Residual Adenylate Kinase (-NaF)", "setting": "ADP 1.43 mM, AMP 5.8 mM, AMP/ADP 4.1, no NaF", "value": 61, "unit": "U/l"}, {"measurement": "Measured Residual Adenylate Kinase (+NaF)", "setting": "ADP 1.43 mM, AMP 7.3 mM, AMP/ADP 5.1, 6 m mole/liter NaF", "value": 10, "unit": "U/l"}, {"measurement": "Measured Residual Adenylate Kinase (-NaF)", "setting": "ADP 1.43 mM, AMP 7.3 mM, AMP/ADP 5.1, no NaF", "value": 56, "unit": "U/l"}, {"measurement": "Measured Residual Adenylate Kinase (+NaF)", "setting": "ADP 1.43 mM, AMP 10.2 mM, AMP/ADP 7.1, 6 m mole/liter NaF", "value": 7.7, "unit": "U/l"}, {"measurement": "Measured Residual Adenylate Kinase (-NaF)", "setting": "ADP 1.43 mM, AMP 10.2 mM, AMP/ADP 7.1, no NaF", "value": 35, "unit": "U/l"}, {"measurement": "Measured Residual Adenylate Kinase (+NaF)", "setting": "ADP 1.43 mM, AMP 14.6 mM, AMP/ADP 10.2, 6 m mole/liter NaF", "value": 5.3, "unit": "U/l"}, {"measurement": "Measured Residual Adenylate Kinase (-NaF)", "setting": "ADP 1.43 mM, AMP 14.6 mM, AMP/ADP 10.2, no NaF", "value": 333, "unit": "U/l"}, {"measurement": "Measured Residual Adenylate Kinase (+NaF)", "setting": "ADP 1.43 mM, AMP 21.9 mM, AMP/ADP 15.3, 6 m mole/liter NaF", "value": 4.6, "unit": "U/l"}, {"measurement": "Measured Residual Adenylate Kinase (-NaF)", "setting": "ADP 1.43 mM, AMP 21.9 mM, AMP/ADP 15.3, no NaF", "value": 19, "unit": "U/l"}, {"measurement": "Measured Residual Adenylate Kinase (+NaF)", "setting": "ADP 1.43 mM, AMP 29.2 mM, AMP/ADP 20.4, 6 m mole/liter NaF", "value": 1.7, "unit": "U/l"}, {"measurement": "Measured Residual Adenylate Kinase (-NaF)", "setting": "ADP 1.43 mM, AMP 29.2 mM, AMP/ADP 20.4, no NaF", "value": 17, "unit": "U/l"}, {"measurement": "Measured Residual Adenylate Kinase (+NaF)", "setting": "ADP 2.86 mM, AMP 2.9 mM, AMP/ADP 1.0, 6 m mole/liter NaF", "value": 51, "unit": "U/l"}, {"measurement": "Measured Residual Adenylate Kinase (-NaF)", "setting": "ADP 2.86 mM, AMP 2.9 mM, AMP/ADP 1.0, no NaF", "value": 166, "unit": "U/l"}, {"measurement": "Measured Residual Adenylate Kinase (+NaF)", "setting": "ADP 2.86 mM, AMP 5.8 mM, AMP/ADP 2.0, 6 m mole/liter NaF", "value": 26, "unit": "U/l"}, {"measurement": "Measured Residual Adenylate Kinase (-NaF)", "setting": "ADP 2.86 mM, AMP 5.8 mM, AMP/ADP 2.0, no NaF", "value": 126, "unit": "U/l"}, {"measurement": "Measured Residual Adenylate Kinase (+NaF)", "setting": "ADP 2.86 mM, AMP 7.3 mM, AMP/ADP 2.6, 6 m mole/liter NaF", "value": 22, "unit": "U/l"}, {"measurement": "Measured Residual Adenylate Kinase (-NaF)", "setting": "ADP 2.86 mM, AMP 7.3 mM, AMP/ADP 2.6, no NaF", "value": 93, "unit": "U/l"}, {"measurement": "Measured Residual Adenylate Kinase (+NaF)", "setting": "ADP 2.86 mM, AMP 10.2 mM, AMP/ADP 3.6, 6 m mole/liter NaF", "value": 17, "unit": "U/l"}, {"measurement": "Measured Residual Adenylate Kinase (-NaF)", "setting": "ADP 2.86 mM, AMP 10.2 mM, AMP/ADP 3.6, no NaF", "value": 84, "unit": "U/l"}, {"measurement": "Measured Residual Adenylate Kinase (+NaF)", "setting": "ADP 2.86 mM, AMP 14.6 mM, AMP/ADP 5.1, 6 m mole/liter NaF", "value": 13, "unit": "U/l"}, {"measurement": "Measured Residual Adenylate Kinase (-NaF)", "setting": "ADP 2.86 mM, AMP 14.6 mM, AMP/ADP 5.1, no NaF", "value": 64, "unit": "U/l"}, {"measurement": "Measured Residual Adenylate Kinase (+NaF)", "setting": "ADP 2.86 mM, AMP 21.9 mM, AMP/ADP 7.7, 6 m mole/liter NaF", "value": 10, "unit": "U/l"}, {"measurement": "Measured Residual Adenylate Kinase (-NaF)", "setting": "ADP 2.86 mM, AMP 21.9 mM, AMP/ADP 7.7, no NaF", "value": 32, "unit": "U/l"}, {"measurement": "Measured Residual Adenylate Kinase (+NaF)", "setting": "ADP 2.86 mM, AMP 29.2 mM, AMP/ADP 10.2, 6 m mole/liter NaF", "value": 5.3, "unit": "U/l"}, {"measurement": "Measured Residual Adenylate Kinase (-NaF)", "setting": "ADP 2.86 mM, AMP 29.2 mM, AMP/ADP 10.2, no NaF", "value": 28, "unit": "U/l"}, {"measurement": "Measured Residual Adenylate Kinase (+NaF)", "setting": "ADP 5.72 mM, AMP 2.9 mM, AMP/ADP 0.51, 6 m mole/liter NaF", "value": 108, "unit": "U/l"}, {"measurement": "Measured Residual Adenylate Kinase (-NaF)", "setting": "ADP 5.72 mM, AMP 2.9 mM, AMP/ADP 0.51, no NaF", "value": 203, "unit": "U/l"}, {"measurement": "Measured Residual Adenylate Kinase (+NaF)", "setting": "ADP 5.72 mM, AMP 5.8 mM, AMP/ADP 1.0, 6 m mole/liter NaF", "value": 55, "unit": "U/l"}, {"measurement": "Measured Residual Adenylate Kinase (-NaF)", "setting": "ADP 5.72 mM, AMP 5.8 mM, AMP/ADP 1.0, no NaF", "value": 186, "unit": "U/l"}, {"measurement": "Measured Residual Adenylate Kinase (+NaF)", "setting": "ADP 5.72 mM, AMP 7.3 mM, AMP/ADP 1.3, 6 m mole/liter NaF", "value": 54, "unit": "U/l"}, {"measurement": "Measured Residual Adenylate Kinase (-NaF)", "setting": "ADP 5.72 mM, AMP 7.3 mM, AMP/ADP 1.3, no NaF", "value": 126, "unit": "U/l"}, {"measurement": "Measured Residual Adenylate Kinase (+NaF)", "setting": "ADP 5.72 mM, AMP 10.2 mM, AMP/ADP 1.8, 6 m mole/liter NaF", "value": 37, "unit": "U/l"}, {"measurement": "Measured Residual Adenylate Kinase (-NaF)", "setting": "ADP 5.72 mM, AMP 10.2 mM, AMP/ADP 1.8, no NaF", "value": 114, "unit": "U/l"}, {"measurement": "Measured Residual Adenylate Kinase (+NaF)", "setting": "ADP 5.72 mM, AMP 14.6 mM, AMP/ADP 2.6, 6 m mole/liter NaF", "value": 31, "unit": "U/l"}, {"measurement": "Measured Residual Adenylate Kinase (-NaF)", "setting": "ADP 5.72 mM, AMP 14.6 mM, AMP/ADP 2.6, no NaF", "value": 108, "unit": "U/l"}, {"measurement": "Measured Residual Adenylate Kinase (+NaF)", "setting": "ADP 5.72 mM, AMP 21.9 mM, AMP/ADP 3.8, 6 m mole/liter NaF", "value": 21, "unit": "U/l"}, {"measurement": "Measured Residual Adenylate Kinase (-NaF)", "setting": "ADP 5.72 mM, AMP 21.9 mM, AMP/ADP 3.8, no NaF", "value": 66, "unit": "U/l"}, {"measurement": "Measured Residual Adenylate Kinase (+NaF)", "setting": "ADP 5.72 mM, AMP 29.2 mM, AMP/ADP 5.1, 6 m mole/liter NaF", "value": 13, "unit": "U/l"}, {"measurement": "Measured Residual Adenylate Kinase (-NaF)", "setting": "ADP 5.72 mM, AMP 29.2 mM, AMP/ADP 5.1, no NaF", "value": 62, "unit": "U/l"}]}
{"compound": "sodium fluoride [NaF]", "values": [{"measurement": "Measured Residual Adenylate Kinase (+NaF)", "setting": "ADP 1.43 mM, AMP 0 mM, 6 m mole/liter NaF", "value": 327, "unit": "U/l"}, {"measurement": "Measured Residual Adenylate Kinase (+NaF)", "setting": "ADP 2.86 mM, AMP 0 mM, 6 m mole/liter NaF", "value": 398, "unit": "U/l"}, {"measurement": "Measured Residual Adenylate Kinase (+NaF)", "setting": "ADP 5.72 mM, AMP 0 mM, 6 m mole/liter NaF", "value": 460, "unit": "U/l"}]}
